Reference: publication PMC12498190, “A Photocaged N‐Phosphonopiperidinone as a Selective Photo‐Cleavable DPP8/9 Inhibitor” (Chembiochem, 2025)

Target: T1, prolyl endopeptidase (PREP) (Homo sapiens, UniProt P48147)
T1 construct: endogenous in cells; host or cells: HEK293 (Cytion, Germany, 300192)
T1 sequence (P48147 1-710): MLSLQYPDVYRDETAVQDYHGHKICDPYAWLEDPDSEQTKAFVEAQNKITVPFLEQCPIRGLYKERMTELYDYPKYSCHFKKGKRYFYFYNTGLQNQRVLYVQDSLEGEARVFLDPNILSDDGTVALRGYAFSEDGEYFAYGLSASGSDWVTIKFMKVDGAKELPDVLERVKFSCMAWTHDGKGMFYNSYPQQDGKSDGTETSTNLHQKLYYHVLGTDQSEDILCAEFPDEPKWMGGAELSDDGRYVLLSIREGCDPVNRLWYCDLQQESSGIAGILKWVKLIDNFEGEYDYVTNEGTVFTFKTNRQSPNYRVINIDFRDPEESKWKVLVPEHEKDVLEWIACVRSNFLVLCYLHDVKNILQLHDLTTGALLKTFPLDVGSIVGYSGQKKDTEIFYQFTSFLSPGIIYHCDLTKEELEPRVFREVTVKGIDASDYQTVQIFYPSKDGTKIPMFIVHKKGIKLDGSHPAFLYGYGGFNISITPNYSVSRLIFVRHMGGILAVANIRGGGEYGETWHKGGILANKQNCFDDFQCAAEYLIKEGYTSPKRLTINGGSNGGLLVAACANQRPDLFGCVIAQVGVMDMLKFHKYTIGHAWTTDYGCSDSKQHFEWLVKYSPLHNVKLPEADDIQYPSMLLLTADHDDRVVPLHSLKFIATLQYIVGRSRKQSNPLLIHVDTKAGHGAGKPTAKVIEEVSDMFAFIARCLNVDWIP
Test: In vitro gel-based competitive ABPP in HEK293 cell lysates, 70 kDa band
Conditions: HEK293 lysate; 10 µM competitor, 30 min; 10 µM 2; green light 5 min
Description: Therefore, HEK293 cell lysates were pre‐incubated with 10 µM 5 or DMSO vehicle control for 30 min, followed by a labeling reaction with 2 µM of the serine hydrolase‐specific ABP fluorophosphonate‐alkyne (≡FP) or 10 µM 2 (Figure 2B). […] Of note, this band has been previously assigned as DPP9 (DPP8 would migrate in the same range, but is only expressed at low levels in the used cell line and therefore cannot be visualized by this approach).^[ [36] ^, [37] ^] […] Again, this labeling was observed regardless of prior irradiation. Subsequently, the competitive labeling experiment was conducted by pre‐incubation with compound 5, with or without subsequent irradiation.
Figure 2 Competitive ABPP with photo‐cleavable inhibitor 5 in HEK293 cells. […] HEK293 cells were irradiated with a green LED lamp in the presence of 0.5% DMSO for 5 min (‘light’), and cell viability was measured after 24 h. […] For both compounds, cell viability was measured under ‘dark’ (not irradiated) and ‘light’ (irradiated for 5 min with a green LED lamp after the addition of the inhibitor) conditions. […]
For in vitro ABPP, cell lysates were generated from HEK293 cells grown on a 10 cm tissue dish. […] The cell lysates were cleared via centrifugation (30 min, 20,817 × g, 4 °C), and protein concentration was determined with a modified Bradford assay using Roti‐Nanoquant (Carl Roth, Germany). […]

For `CCCCCc1ccc(SCCP(=O)(OCC)N2CCC[C@H](NC(=O)OCC3=C4C(C)=CC(C)=[N+]4[B-](C)(C)n4c(C)cc(C)c43)C2=O)cc1` (stereo partly shown) [Compound 5], the “Competition of PREP band labeling by ABP 2 (in words)” value was “slight reduction”.
